The target in assay [1] is T1, Calpain-2 catalytic subunit (Sus scrofa, UniProt P43367).
T1 sequence (P43367 whole entry): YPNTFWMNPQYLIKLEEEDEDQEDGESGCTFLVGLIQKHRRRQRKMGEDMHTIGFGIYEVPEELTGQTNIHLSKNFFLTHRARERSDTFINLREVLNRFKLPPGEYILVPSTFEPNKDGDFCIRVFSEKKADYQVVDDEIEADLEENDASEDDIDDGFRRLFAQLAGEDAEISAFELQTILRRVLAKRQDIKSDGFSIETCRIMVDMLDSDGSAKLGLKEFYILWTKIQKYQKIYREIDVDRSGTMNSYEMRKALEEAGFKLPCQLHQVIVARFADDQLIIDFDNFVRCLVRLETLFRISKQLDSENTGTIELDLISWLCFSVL
Kind of assay: m-calpain protease blockers, concentration series – biochemical, fluorogenic peptide substrate, dose response (AID 1420). Format: functional.

Assay [2] in a line: microbe, parasite or virus in culture. In kind it is functional. As to conditions: Mycobacterium tuberculosis.
Assay [3] has as its target T2, Heat shock factor protein 1 (Mus musculus, UniProt P38532).
T2 sequence (P38532 whole entry): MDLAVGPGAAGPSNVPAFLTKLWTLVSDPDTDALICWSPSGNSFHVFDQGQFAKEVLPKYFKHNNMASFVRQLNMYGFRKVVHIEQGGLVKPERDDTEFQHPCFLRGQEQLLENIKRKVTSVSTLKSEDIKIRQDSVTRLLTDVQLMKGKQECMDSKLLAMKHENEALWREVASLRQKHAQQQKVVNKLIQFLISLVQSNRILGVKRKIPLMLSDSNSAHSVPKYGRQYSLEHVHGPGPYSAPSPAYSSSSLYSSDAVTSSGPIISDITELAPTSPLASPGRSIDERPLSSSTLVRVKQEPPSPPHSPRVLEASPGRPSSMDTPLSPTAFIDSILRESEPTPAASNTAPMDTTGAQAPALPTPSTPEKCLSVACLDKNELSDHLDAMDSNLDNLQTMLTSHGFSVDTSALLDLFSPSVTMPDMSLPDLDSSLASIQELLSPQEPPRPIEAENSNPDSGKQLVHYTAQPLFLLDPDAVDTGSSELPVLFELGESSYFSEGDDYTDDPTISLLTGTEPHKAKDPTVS
Briefly: decrease of HSF1-responsive luciferase luminescence – cell-based, NIH3T3, dose retest, confirmation (AID 2382).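 Note: NIH3T3 fibroblasts with HSF1-driven luciferase reporter stressed by proteasome inhibitor MG132; luminescence from HSF1-driven luciferase expression after 8 hours of MG132 stress.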 Format: functional.

In a further assay the test system is HEK293. Briefly: EBV LMP1 TES2 canonical NF-kB signalling blockers – cell-based, HEK293, luciferase, cherry-pick, dose response (AID 588343). In kind it is functional. As to conditions: Homo sapiens.
The nature of assay [4]: alpha-synuclein stem-loop luciferase translation blockers – H4 neuroglioma cells, luminescence, confirmation (AID 1988). In kind it is functional, cell-based.
Assay [5] can be described thus: DRD fibroblast viability loss – cell-based, non-viral oncogenic, luminescence, dose response (AID 1934). Format: functional. As to conditions: Homo sapiens.
A short description of assay [6]: luciferase reporter signal suppression in cells – H4 neuroglioma cells, luminescence, dose response (AID 1990). In kind it is functional, cell-based. For orientation: A reporter such as luciferase makes a cellular process visible.
In assay [7] the test system is BJ. Briefly: BJ-TERT fibroblast viability loss – cell-based, RAS-independent, luminescence, dose response (AID 1933). In kind it is functional. As to conditions: Homo sapiens.
Assay [8] is described as follows: Luminescence Cell-Based Dose Response HTS to Identify Inhibitors of 5'UTR Stem-Loop Driven Prion Protein mRNA Translation in H4 Neuroglioblastoma Cells. [Related pubchem assays: 1827 (Project Summary), 1813 (Primary HTS)]. Format: functional.
For assay [9], the system named is BJ. Kind of assay: BJ-TERT-LT-ST fibroblast viability loss – cell-based, RAS-independent, luminescence, dose response (AID 1935).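 Note: BJ fibroblasts immortalized with TERT plus LT and ST oncogenes.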 In kind it is functional. As to conditions: Homo sapiens.
The test system of assay [10] is BJ. Briefly: cells. In kind it is functional, cell-based. As to conditions: Homo sapiens.
The nature of assay [11]: Trypanosoma cruzi growth suppression in host cells – NIH3T3 host cells, beta-gal luminescence, confirmation (AID 2044).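 Note: intracellular parasites grown in NIH/3T3 mouse fibroblasts as host cells; luminescent beta-galactosidase reporter signal from transgenic T. cruzi replicating inside host cells; inhibitors lower the luminescence signal.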 Format: functional, cell-based.
Assay [12] is described as follows: NIH3T3 cell viability loss – ATP luminescence, mouse fibroblasts, counter-screen, dose response (AID 2010).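 Note: cells exposed to compound for about 90 hours before reading.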 Format: functional, cell-based.
For assay [13], the target named is FAD-linked sulfhydryl oxidase ALR (Homo sapiens, UniProt P55789). Kind of assay: ALR-catalysed DTT oxidation blockers – biochemical, H2O2 detection, luminescence, cherry-pick, dose response (AID 493248).
A short description of assay [14]: non-specific 3'UTR reporter inhibition in Clone20-Shn3RL – cell-based, Renilla luciferase, cherry-picked, counter-screen for Shn3 inhibitor project, dose response (AID 624133). In kind it is functional. (In general: Counterscreens check selectivity or assay interference.)
Assay [15] can be described thus: loss of viability in HepG2 cells – cell-based, CellTiter-Glo, cherry-picked, cytotoxicity control for Shn3 inhibitor project, dose response (AID 624134). Format: functional. Background: Cellular ATP, detected with luciferase, serves as a proxy for viable cell number.
A short description of assay [16]: reduction of Shn3 3'UTR-driven luciferase in osteoblasts – cell-based, Clone20 osteoblasts, firefly luciferase, cherry-picked, dose response (AID 624132).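 Note: firefly luciferase luminescence from reporter carrying the Shn3 3'UTR in osteoblasts.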 Format: functional.
Assay [17] is described as follows: Luminescence Cell-Based Dose Response HTS to Identify Activators of Luciferase Translation or Activity in H4 […] Cells. [Related pubchem assays: 1829 (Project Summary), 1814 (Primary HTS)]. In kind it is functional.
For the next assay, the system named is H4. Briefly: Luminescence Cell-Based Dose Response HTS to Identify Activators of 5'UTR Stem-Loop Driven Prion Protein mRNA Translation in H4 Neuroglioblastoma Cells. [Related pubchem assays: 1829 (Project Summary), 1814 (Primary HTS)]. Format: functional. As to conditions: Homo sapiens.
In the next assay the target is T3, Protein skinhead-1 (Caenorhabditis elegans, UniProt P34707).
T3 sequence (P34707 whole entry): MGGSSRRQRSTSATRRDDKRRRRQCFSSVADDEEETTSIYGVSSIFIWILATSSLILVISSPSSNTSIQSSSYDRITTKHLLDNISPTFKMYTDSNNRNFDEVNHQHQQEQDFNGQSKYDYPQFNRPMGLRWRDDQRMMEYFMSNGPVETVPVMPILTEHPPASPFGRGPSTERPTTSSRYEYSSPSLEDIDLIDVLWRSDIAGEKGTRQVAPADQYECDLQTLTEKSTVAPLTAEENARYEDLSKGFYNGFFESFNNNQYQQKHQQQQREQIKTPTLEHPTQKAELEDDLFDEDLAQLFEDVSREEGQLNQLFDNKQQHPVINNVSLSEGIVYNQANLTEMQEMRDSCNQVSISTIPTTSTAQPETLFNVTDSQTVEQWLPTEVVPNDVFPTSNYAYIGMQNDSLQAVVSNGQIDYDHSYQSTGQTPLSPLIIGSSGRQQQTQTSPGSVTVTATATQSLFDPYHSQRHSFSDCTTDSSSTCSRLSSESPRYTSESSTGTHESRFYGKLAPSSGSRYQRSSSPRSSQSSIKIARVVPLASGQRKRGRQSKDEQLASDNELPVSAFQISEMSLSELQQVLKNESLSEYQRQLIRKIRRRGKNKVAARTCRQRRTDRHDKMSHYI
Format: functional.

Assay [18] has as its target Luciferin 4-monooxygenase (Photinus pyralis, UniProt P08659). Briefly: inhibition of purified Photinus pyralis luciferase – biochemical, luminescence, dose response (AID 1891).
A short description of assay [19]: Luminescence Cell-Based Dose Confirmation HTS to Identify Inhibitors of Platelet Dense Granule Release. [Related pubchem assays: 1663 (Primary HTS), 1678 (Summary of Project)]. In kind it is functional.

Data on 23 molecules can be found in ChEMBL document CHEMBL1201862, “PubChem BioAssay data set” (2004).

Activity calls are given as the source filed them. Cut-off read from the data, not from the text of the source, for most assays here: actives have a measured EC50 and inactives only a lower limit.

Chain of FAD-linked sulfhydryl oxidase ALR (P55789 whole entry): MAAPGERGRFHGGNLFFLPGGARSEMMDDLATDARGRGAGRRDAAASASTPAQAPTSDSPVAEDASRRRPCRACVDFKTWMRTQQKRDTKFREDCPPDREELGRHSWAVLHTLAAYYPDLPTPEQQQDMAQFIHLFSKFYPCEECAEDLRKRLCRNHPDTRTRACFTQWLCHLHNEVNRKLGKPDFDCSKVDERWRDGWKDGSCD
Chain of Luciferin 4-monooxygenase (P08659 whole entry): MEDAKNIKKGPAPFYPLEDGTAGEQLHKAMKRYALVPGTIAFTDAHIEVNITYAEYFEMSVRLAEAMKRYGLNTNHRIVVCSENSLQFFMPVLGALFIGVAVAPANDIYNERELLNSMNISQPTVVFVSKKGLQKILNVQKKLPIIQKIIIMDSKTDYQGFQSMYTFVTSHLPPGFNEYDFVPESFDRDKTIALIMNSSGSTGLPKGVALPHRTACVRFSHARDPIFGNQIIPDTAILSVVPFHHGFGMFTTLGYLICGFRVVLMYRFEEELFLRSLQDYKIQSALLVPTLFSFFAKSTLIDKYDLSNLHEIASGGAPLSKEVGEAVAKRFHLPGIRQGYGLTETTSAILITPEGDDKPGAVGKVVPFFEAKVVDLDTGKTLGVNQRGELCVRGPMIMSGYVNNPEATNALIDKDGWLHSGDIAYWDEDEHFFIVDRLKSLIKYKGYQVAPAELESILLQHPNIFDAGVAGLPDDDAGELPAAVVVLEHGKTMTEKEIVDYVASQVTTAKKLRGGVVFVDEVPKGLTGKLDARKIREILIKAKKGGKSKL

By IC50 is commonly meant the concentration that gives 50% inhibition. On to `Cc1cc(NC(=O)c2ccc3c(c2)C(=O)N(CCC(C)C)C3=O)no1`, for which the IC50 in assay [1] is 17.2 µM (not active).
With `COc1ccc(-c2csc3ncnc(N4CCN(c5ccccc5OC)CC4)c23)cc1`, in assay [2], the CC50 is > 40 µM (active).
As to `CCOC(=O)c1cnc2c(Cl)ccc(Cl)c2c1O`, the IC50 in assay [1] is listed as 17.3 µM (not active).
For orientation: EC50 means the concentration needed to bring the measured effect to its halfway point. What is called AC50 is the concentration at which the activity in the assay is half-maximal. Take `COc1cc2cc(C(=O)Nc3ccc4c(c3)OCCO4)[nH]c2cc1OC`: in assay [3], the EC50 is 0.907 µM (active). Also, in the assay on HEK293, the concentration at half-maximal activity (AC50) is 0.595 µM (active).
On to `CCCN(C#N)c1nc(NCC)nc(NC(C)C)n1`, for which the IC50 in assay [1] is > 50 µM (not active).
For the molecule `COc1cc(OC)cc(C(=O)c2c(C)c(C#N)c3ccccn23)c1`, the EC50 in assay [4] was 2.6 µM (active); in [5], 1.49 µM (active); in assay [6], 15 µM (active); in the assay on BJ [7], 2.54 µM (active); in assay [8], > 120 µM (not active); with BJ [9], 1.46 µM (inconclusive). In addition, in the assay on BJ [10], the EC50 is 0.769 µM (active).
On to `CCOc1ccc(-c2cnc(NCc3cccc4ccccc34)n2CCOC)cc1`, for which the EC50 is 0.979 µM (active) in assay [11], > 195 µM (not active) in [3] and > 60 µM (not active) in assay [12]. Moreover, the CC50 in assay [2] is 12.2 µM (active).
Consider `Cc1cc([N+](=O)[O-])nn1CCCC(=O)Nc1cc(Oc2ccccc2)cc([N+](=O)[O-])c1`, for which the 50% inhibitory concentration (IC50) in assay [1] was 5.32 µM (not active).
Regarding `CC(O)CNc1nc2ccccc2n1-c1ncnc2sc3c(c12)CCC3` (stereo not drawn), the CC50 in assay [2] is 29.6 µM (active).
With `CCN(CCCNC(=O)CCn1c(=O)[nH]c2ccsc2c1=O)c1ccccc1`, the EC50 in assay [3] was > 195 µM (not active). Moreover, the IC50 in assay [1] was < 0.4 µM (not active).
Take `Cc1nc2ccc(S(=O)(=O)NCC(=O)N(C)Cc3ccccc3)cc2s1`: the AC50 in assay [13] is 1.05 µM (active).
`COc1ccccc1N=C(S)N(Cc1ccco1)Cc1cc2ccc(C)c(C)c2nc1O`: the concentration giving a half-maximal response (EC50) in [5] is 0.685 µM (active); in the assay on BJ [7], 0.717 µM (inconclusive); with BJ [9] it was 0.525 µM (active); in the assay with BJ [10] it was 20.2 µM (inconclusive).
Turning to `COc1ccc(-n2nc3c(N4CCC(C(=O)NCC(C)c5ccccc5)CC4)nnc(C)c3c2C)cc1` (stereo not drawn), the AC50 in assay [14] was 36.7 µM (active); in assay [15], 30.2 µM (active); in assay [16] it was 3.25 µM (active).
As for `O=C(Cc1cccs1)Nc1ccc(-c2nc3ccccc3[nH]2)cc1`, the EC50 was 1.51 µM (active) in [17] and 0.236 µM (active) in the assay with H4.
For the molecule `COc1cc(N(C)C)c([N+](=O)[O-])cc1C(=O)N1CCN(Cc2ccccc2)CC1`, the AC50 with HEK293 was 12.8 µM (active).
On to `CC(C)CCNc1nc2c(c(=O)n(Cc3cccc(F)c3)c(=O)n2C)n1C`, for which the IC50 in assay [1] is 44.7 µM (not active).
Regarding `O=C(/C=C/Nc1ccc(Br)cc1F)c1ccccc1`, the IC50 on Protein skinhead-1 is > 100 µM (inactive). In addition, the concentration for a half-maximal effect (EC50) in assay [4] was 4.27 µM (active); in assay [8] it was 9.38 µM (active); in [18] it was 0.542 µM (active); in assay [19], 4.16 µM (active). For the same molecule, the half-maximal activity concentration (AC50) in the assay with HEK293 was 1.65 µM (active).
As to `COc1ccc(Nc2nc(N)c(C(=O)c3ccc(F)cc3)s2)cc1`, the EC50 in [5] was 2.8 µM (inconclusive); with BJ [7], 2.89 µM (inconclusive); with BJ [9] it was 37.5 µM (active); in the assay with BJ [10], 54.4 µM (inconclusive).
As to `CC1(C)Nc2ccccc2N(CC(=O)N2CCCCC2)C1=O`, the AC50 in [13] is 1.96 µM (active).
Regarding `Oc1ccccc1/C=N/NC(=S)NC1CC2CC1C1C=CCC21` (stereo not drawn), in assay [2], the CC50 is 13.9 µM (active).
Take `Cc1ccc(-c2cc(C(=O)N/N=C/C=C/c3ccco3)c3ccccc3n2)cc1C`: in the assay on HEK293, the concentration at half-maximal activity (AC50) was 1.63 µM (active).
Take `CC1CCCC/C1=N\NC(=S)NCCc1ccccc1` (stereo not drawn): the CC50 in assay [2] is > 40 µM (active).
For the molecule `CN(C)c1ccc(/C=N/NS(=O)(=O)c2ccc(Br)cc2)cc1`, the half-maximal activity concentration (AC50) in [13] is 33.5 µM (active).
